Here are results for 13 compounds from ChEMBL document CHEMBL3044681, “Piperamides and their derivatives as potential anti-trypanosomal agents” (Med Chem Res, 2009).

For the first assay, the system named is Trypanosoma cruzi. Put plainly: Antitrypanosomal activity against epimastigote forms of Trypanosoma cruzi Y after 72 hr. It is filed as functional, organism-based.
Conditions: not given; call rule not given here
In general, IC50 refers to the point on the concentration scale where inhibition reaches its midpoint. As to `O=C(O)/C=C/C=C/c1ccc2c(c1)OCO2` [PIPERIC ACID], the IC50 entry is listed as “Not Active”.
As to `O=C(CCCCc1ccc2c(c1)OCO2)N1CCCCC1` [TETRAHYDROPIPERINE], the concentration for half-maximal inhibition (IC50) result was “Not Active”.
Same read-out and setting: then `CC(C)CNC(=O)/C=C/CCc1ccc2c(c1)OCO2` [4,5-DIHYDROPIPERLONGUMININE], with “Not Active”; and `COc1cc(/C=C/C(=O)O)cc(OC)c1OC` [SINAPIC ACID METHYL ETHER], with “Not Active”.
As for `O=C(/C=C/CCc1ccc2c(c1)OCO2)N1CCCCC1` [PIPERANINE], the IC50 entry is given as “Not Active”.
Take `COC(=O)/C=C/c1cc(OC)c(OC)c(OC)c1`: the IC50 entry is “Not Active”.
The same measure, in the same setting: to `COc1cc(CCC(=O)N2CCCCC2=O)cc(OC)c1OC` [TETRAHYDROPIPLARTINE] belongs “Not Active”; to `CCCCCCCCCC(=O)NCC(C)C` [TETRAHYDROPELLITORINE], “Not Active”; to `CC(C)CNC(=O)/C=C/c1ccc2c(c1)OCO2` [FOGARAMIDE], “Not Active”.

The same assay, now with this note: Trypanosoma cruzi, Y, 72 h; read-out: IC50.
For `O=C(/C=C/C=C/c1ccc2c(c1)OCO2)N1CCCCC1` [PIPERINE], the IC50 was 233 µM.
As to `COc1cc(/C=C/C(=O)N2CCC=CC2=O)cc(OC)c1OC` [PIPLARTINE], the IC50 is 21 µM.
Regarding `COc1cc(/C=C\C(=O)N2CCC=CC2=O)cc(OC)c1OC` [(Z)-PIPLARTINE], the IC50 is 10.5 µM.
Take `CCCCC/C=C/C=C/C(=O)NCC(C)C` [PELLITORIN]: the 50% inhibitory concentration (IC50) is 57.1 µM.
